Tested on: primary cortical astrocytes
Test: BDNF release from primary cortical astrocytes, BDNF in situ ELISA
Assay type: cell-based, mouse
Procedure: To define the amount of endogenous BDNF released, we will modify the ELISA in situ protocol developed by Promega. A 96-well Nunc MaxiSorp surface polystyrene flat-bottom immunoplate was precoated with an anti-BDNF monoclonal antibody [diluted 1:1,000 in coating buffer (25 mM sodium bicarbonate and 25 mM sodium carbonate, pH 9.7)]. After rinsing off unbound antibody with TBS-T buffer [20 mM Tris-HCl (pH 7.6), 150 mM NaCl and 0.05% (v/v) Tween-20] and blocking the plate to minimize nonspecific binding, the culture media was added to the plate for 2 hrs to equilibrate the cell growth environment. […] The amount of specifically bound polyclonal antibody was then detected through the use of the anti-IgY-horseradish peroxidase (HRP) tertiary antibody (final concentration=0.5 μg/mL), which when exposed to the chromogenic substrate (TMB reagent; Promega), changes color in proportion to the amount of BDNF present in the sample. The color intensity was quantified by measuring the absorbance at 450 nm with a Viktor3 ELISA plate reader (Perkin Elmer). […] The amount of specifically bound polyclonal antibody was then detected through the use of the anti-IgY-horseradish peroxidase (HRP) tertiary antibody, which when exposed to the chromogenic substrate (TMB reagent, Promega), changes color in proportion to the amount of BDNF present in the sample. […]

CC(=O)[C@H]1CC[C@H]2[C@@H]3CCC4=CC(=O)CC[C@]4(C)[C@H]3CC[C@]12C [P4, progesterone]
BDNF release in P4-treated cultures (astrocyte cultures, control cultures as little as 2 pg/ml): ~250 pg/mL | P4-induced BDNF release after OGD (primary cortical astrocytes exposed to one-hour OGD, FIG. 8B): compromised

From patent US11230711B2, “Inhibition of LET7I as a means to enhance the protective effect of progesterone against stroke” (UNIVERSITY OF NORTH TEXAS HEALTH SCIENCE CENTER, priority 2017, dated 2022)
